Source: ChEMBL document CHEMBL2203162, “Triazole pyrimidine nucleosides as inhibitors of Ribonuclease A. Synthesis, biochemical, and structural evaluation” (Bioorg Med Chem, 2012)

How the values were obtained:
[1] = Competitive inhibition of bovine pancreatic RNase A type 12-A assessed as degradation of yeast tRNA preincubated for 10 mins before addition of the enzyme by double reciprocal plot analysis; parameters: species or system Bos taurus
Bos taurus = organism: Bos taurus; assay: Competitive inhibition of bovine pancreatic RNase A type 12-A assessed as degradation of yeast tRNA at 50 uM preincubated for 10 mins before addition of the enzyme by double reciprocal plot analysis
Ribonuclease pancreatic = target: T1, Ribonuclease pancreatic (Bos taurus, UniProt P61823); assay: Inhibition of bovine pancreatic RNase A
T1 sequence (P61823 whole entry): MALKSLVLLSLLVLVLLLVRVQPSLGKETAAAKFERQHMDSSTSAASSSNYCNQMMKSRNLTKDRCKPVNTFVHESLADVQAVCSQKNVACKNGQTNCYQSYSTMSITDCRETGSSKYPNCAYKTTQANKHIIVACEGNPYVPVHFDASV

Angiogenin = Angiogenin (Homo sapiens, UniProt P03950); assay: Inhibition of ANG
[2] = target: T2, Non-secretory ribonuclease (Homo sapiens, UniProt P10153); assay: Inhibition of EDN
T2 sequence (P10153 whole entry): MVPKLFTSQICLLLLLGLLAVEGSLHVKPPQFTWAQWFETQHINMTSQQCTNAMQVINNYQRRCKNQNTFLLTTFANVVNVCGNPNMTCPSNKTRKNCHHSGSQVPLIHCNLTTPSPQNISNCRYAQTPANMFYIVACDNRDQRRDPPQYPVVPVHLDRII

[3] = target: Ribonuclease pancreatic (Bos taurus) (UniProt P61823); assay: Inhibition of RNase A
[4] = Competitive inhibition of bovine pancreatic RNase A type 12-A by Dixon plot analysis; parameters: species or system Bos taurus

Chain of Angiogenin (P03950 whole entry): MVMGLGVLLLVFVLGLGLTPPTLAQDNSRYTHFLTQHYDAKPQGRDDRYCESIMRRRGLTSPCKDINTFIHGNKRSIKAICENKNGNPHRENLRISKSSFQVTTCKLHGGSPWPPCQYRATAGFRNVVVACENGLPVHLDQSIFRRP

## O=c1[nH]c(=O)n([C@@H]2O[C@H](CO)[C@@H](O)[C@H]2O)cc1Br
[1]
  Ki: 69.1 µM

## O=c1[nH]c(=O)n(Cc2cn([C@@H]3O[C@H](CO)[C@@H](O)[C@H]3O)nn2)cc1Br
Bos taurus
  inhibition: 20%

## O=c1ccn([C@@H]2O[C@H](CO)[C@@H](O)[C@H]2O)c(=O)[nH]1 [URIDINE]
[1]
  Ki: 28.5 µM

## O=c1ccn(Cc2cn([C@@H]3O[C@H](CO)[C@@H](O)[C@H]3O)nn2)c(=O)[nH]1
Ribonuclease pancreatic
  Ki: 0.24 µM

## Nc1ncnc2c1ncn2[C@@H]1O[C@H](COP(=O)(O)OP(=O)(O)O[C@H]2C[C@H](n3ccc(=O)[nH]c3=O)O[C@@H]2COP(=O)(O)O)[C@@H](OP(=O)(O)O)[C@H]1O
Angiogenin
  Ki: 360 µM
[2]
  Ki: 0.18 µM
[3]
  Ki: 0.027 µM

## O=c1[nH]c(=O)n([C@@H]2O[C@H](CO)[C@@H](O)[C@H]2O)cc1F [5-FLUOROURIDINE]
[1]
  Ki: 33.6 µM

## O=c1ccn([C@@H]2O[C@H](COP(=O)(O)OP(=O)(O)O)[C@@H](O)[C@H]2O)c(=O)[nH]1 [URIDINE_DIPHOSPHATE]
[4]
  Ki: 650 µM

## O=c1[nH]c(=O)n(Cc2cn([C@@H]3O[C@H](CO)[C@@H](O)[C@H]3O)nn2)cc1Cl
[1]
  Ki: 94.8 µM

## O=c1[nH]c(=O)n([C@@H]2O[C@H](CO)[C@@H](O)[C@H]2O)cc1Cl
[1]
  Ki: 44.5 µM

## O=c1ccn([C@@H]2O[C@H](COP(=O)(O)O)[C@@H](O)[C@H]2O)c(=O)[nH]1
[4]
  Ki: 4000 µM

## Cc1cn([C@@H]2O[C@H](CO)[C@@H](O)[C@H]2O)c(=O)[nH]c1=O
[1]
  Ki: 44.1 µM
